Measurements from article PMC9820430, “New Affordable Methods for Large-Scale Isolation of Major Olive Secoiridoids and Systematic Comparative Study of Their Antiproliferative/Cytotoxic Effect on Multiple Cancer Cell Lines of Different Cancer Origins” (International Journal of Molecular Sciences, 2022).
Marks after values point to notes of the source that are not given here.

Legend:
Experiment in all cases: EdU incorporation cell proliferation assay, 24 h
Format in all cases: cell-based, human
Conditions in all cases: for % Inhibition ± SE of cell proliferation: 24 h at EC50, normalized with the control; for % EdU +ve ± SE (S-phase cells): 24 h treatment at EC50 concentration
AGS = test system: AGS
Procedure: (§1) For this purpose, ten cancer cell lines (i.e., MDA-MB 231, SK-BR-3, MCF-7, A2058, SK-MEL-28, AGS, HepG-2, PANC-1, H1299 and Hela) originating from breast, melanoma, stomach, hepatic, pancreatic, lung and cervical tumors were analyzed in parallel with control samples (i.e., the same cells treated only with 0.2% (v/v) DMSO). […] Subsequently, the treated cells were allowed to incorporate 5-ethynyl-2′-deoxyuridine (EdU) into replicating DNA according to the protocol described in detail in the Experimental Section. EdU, a thymidine analog, can be incorporated into DNA in vivo and detected later by using copper-catalyzed azide–alkyne cycloaddition (click reaction) without prior DNA denaturation. The pool of cells in the S phase can be then easily detected by fluorescence (FL) microscopy or by flow cytometry by analyzing the incorporation of EdU in replicating DNA of single cells. In this study, after EdU incorporation, the nuclei of the entire cell population were stained with Hoechst and imaged by confocal microscopy (Experimental Section). EdU-positive nuclei, marked by green FL, as well as the total number of nuclei, marked by blue FL, were enumerated by applying the Icy image analysis algorithm on the digital images acquired by confocal microscopy.
(§2) Human cancer cells were plated onto sterile glass coverslips (10-mm diameter, 5161063, ThermoFisher Scientific, Waltham, MA, USA) in 24-well tissue culture plates, at a density 5 times the density of cells seeded in 96-well plate and at a final medium volume of 500 μL. In order to obtain homogeneous plating, 250 μL of the medium was added directly to the wells already containing coverslips. Using a tip perpendicularly, coverslips were pressed in order to ensure their attachment to the bottom of the well. The cells were then seeded by adding 250 μL of single-cell suspension drop by drop following a cross path. Immediately after seeding, the plate was shaken back and forth at least ten times to achieve homogeneous plating. The cells were allowed to adhere overnight (~16 h) at 37 °C and 5% (v/v) CO2. The next day, a volume of 500 μL fresh medium was added to each well and the treatment with OOPs was initiated by adding directly to the wells 2 μL of OOPs from the 500× stock in DMSO and immediately mixed afterward by pipetting. […] Control cells were prepared under the same experimental conditions using DMSO instead of the OOPs’ solutions in DMSO at the same final concentration (0.2% (v/v) DMSO). […] Each condition was performed in duplicate. After treatment with the OOPs, live proliferating mammalian cells were labeled with 5-ethynyl-2’-deoxyuridine (EdU), a nucleoside analog of thymidine, using the Cell proliferation kit III (EdU-FM, PK-CA724-488FM, Promokine, Heidelberg, Germany). More specifically, a 20 μM EdU solution from a 10 mM stock in DMSO was prepared in a fresh culture medium. Culture supernatant was removed from treated cells to leave only 250 μL. An equal volume of 20 μM EdU solution was added and mixed with the medium to obtain a 10 μΜ EdU final concentration. The treated cells were incubated for the desired time of pulse length (2–4 h) under conditions optimal for each cell type depending on each cell line’s doubling time. Following incubation, cells were washed twice with PBS, then fixed with 4% (w/v) paraformaldehyde in PBS for 15 min at room temperature (RT), and subsequently washed twice with 3% (w/v) BSA for 5 min each time. Cells were permeabilized by incubation (20 min, RT, in the dark) with 0.5% (v/v) Triton-X 100 in PBS. Following permeabilization the cells were washed twice with 3% (w/v) BSA in PBS and incubated for 30 min with the reaction cocktail, according to the instructions of the Cell proliferation kit III (EdU-488; FM). After staining for replicating DNA, the cells were washed three times with 3% (w/v) BSA in PBS, and were then incubated (10 min, at RT) with Hoechst 33342 in PBS (1:10.000) to visualize all the nuclei. […]

H1299 = test system: H1299
Procedure: as §1, §2

Hela = test system: Hela
Procedure: as §1, §2

HepG-2 = test system: HepG-2
Procedure: as §1, §2

MDA-MB 231 = test system: MDA-MB 231
Procedure: as §1, §2

PANC-1 = test system: PANC-1
Procedure: as §1, §2

SK-BR-3 = test system: SK-BR-3
Procedure: as §1, §2

SK-MEL-28 = test system: SK-MEL-28
Procedure: as §1, §2

Compound | % Inhibition ± SE of cell proliferation (AGS) | % EdU +ve ± SE (S-phase cells) (AGS) | % Inhibition ± SE of cell proliferation (H1299) [%] | % EdU +ve ± SE (S-phase cells) (H1299) [%] | % Inhibition ± SE of cell proliferation (Hela) [%] | % EdU +ve ± SE (S-phase cells) (Hela) [%] | % Inhibition ± SE of cell proliferation (HepG-2) [%] | % EdU +ve ± SE (S-phase cells) (HepG-2) [%] | % Inhibition ± SE of cell proliferation (MDA-MB 231) [%] | % EdU +ve ± SE (S-phase cells) (MDA-MB 231) [%] | % Inhibition ± SE of cell proliferation (PANC-1) [%] | % EdU +ve ± SE (S-phase cells) (PANC-1) [%] | % Inhibition ± SE of cell proliferation (SK-BR-3) [%] | % EdU +ve ± SE (S-phase cells) (SK-BR-3) [%] | % Inhibition ± SE of cell proliferation (SK-MEL-28) | % EdU +ve ± SE (S-phase cells) (SK-MEL-28)
COC(=O)C1=COC(C)[C@@H](C=O)[C@@H]1CC(=O)OCCc1ccc(O)c(O)c1 (mixture of isomers) [3a,b, oleuropein aglycone] | 28.9 ± 1.5 ^a % | 18.4 ± 1.5 ^a % | 29.1 ± 6.5 | 31.9 ± 5.9 | 24.3 ± 2.1 | 20.9 ± 3.5 | 28.4 ± 0.1 | 10.6 ± 3.1 | 21.5 ± 2.1 | 19.7 ± 3.1 | 23.6 ± 0.8 | 21.9 ± 5.3 | 16.9 ± 1.7 | 6.6 ± 3.5 | 24.7 ± 0.7 ^a % | 0.7 ± 0.3 ^a %
C/C=C(/C=O)[C@@H](CC=O)CC(=O)OCCc1ccc(O)cc1 [compound 1, oleocanthal] |  | 16.2 ± 4.4 ^a % |  | 14.0 ± 1.9 |  |  |  | 26.4 ± 1.5 |  | 29.1 ± 2.3 |  | 23.6 ± 5.8 |  | 9.5 ± 3.9 |  | 15.0 ± 4.8 ^a %
C/C=C(/C=O)[C@@H](CC=O)CC(=O)OCCc1ccc(O)c(O)c1 [compound 2, oleacein] | 31.0 ± 3.5% | 14.7 ± 0.4% | 47.8 ± 4.1 | 13.2 ± 3.5 | 23.6 ± 7.9 | 21.7 ± 6.5 |  |  | 15.7 ± 2.4 | 25.5 ± 4.1 |  | 37.6 ± 7.1 | 16.2 ± 2.4 | 7.4 ± 0.7 | 20.3 ± 4.0% | 1.8 ± 0.4%
ligstroside aglycone [4a,b] | 31.6 ± 2.6% | 14.0 ± 0.5% |  |  | 14.1 ± 6.3 | 31.2 ± 4.9 | 27.0 ± 1.1 | 12.0 ± 2.0 | 8.2 ± 1.8 | 33.0 ± 2.8 | 23.4 ± 2.7 | 22.1 ± 7.2 | 4.8 ± 3.1 | 18.8 ± 1.3 | 4.7 ± 4.6 ^a % | 20.8 ± 5.1 ^a %
